Reference: US20220323406A1, “METHODS AND COMPOSITIONS FOR DIFFERENTIATING STEM CELLS” (Massachusetts Institute of Technology, priority 2019, published 2022)

Assays:
[1] = test system: ENR+CD organoids (ISC to Paneth cell differentiation); assay: Primary screen: basal (non-stimulated) lysozyme secretion LYZ.NS, 2.5-D 384-well ENR+CD organoid differentiation; format: cell-based, mouse; details: primary screen; for Z.LYZ.NS: standard z score
Source text: (§1) High-throughput screening.

[2] = test system: ENR+CD organoids (ISC to Paneth cell differentiation); assay: Primary screen: CCh-stimulated lysozyme secretion LYZ.S, 2.5-D 384-well ENR+CD organoid differentiation; format: cell-based, mouse; details: primary screen
Source text: as §1

[3] = test system: ENR+CD organoids; assay: Primary screen: ATP (CellTiter-Glo 3D, CTG) cell number/viability, 2.5-D 384-well ENR+CD organoids; details: primary screen; for Z.CTG: standard z score;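 as to all read-outs here: compounds given at plating and again on day 3 over a 6-day differentiation from ENR+CV stem-cell-enriched precursors, ATP measured on day 6, plate median as control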
[4] = dose 0.08 uM, FC vs plate median
[5] = dose 0.40 uM, FC vs plate median
[6] = dose 2.00 uM, FC vs plate median
[7] = dose 10.00 uM, FC vs plate median
[8] = dose 0.08 uM, FC relative to plate median
[9] = dose 0.40 uM, FC relative to plate median
[10] = dose 2.00 uM, FC relative to plate median
[11] = dose 10.00 uM, FC relative to plate median

SMILES	Z.LYZ.NS ([1]; dose 0.08 uM)	Z.LYZ.NS ([1]; dose 0.40 uM)	Z.LYZ.NS ([1]; dose 2.00 uM)	Z.LYZ.NS ([1]; dose 10.00 uM)	Z.LYZ.NS (standard z score) ([1]; dose 0.08 uM)	Z.LYZ.NS (standard z score) ([1]; dose 0.40 uM)	Z.LYZ.NS (standard z score) ([1]; dose 2.00 uM)	Z.LYZ.NS (standard z score) ([1]; dose 10.00 uM)	Dose.FC.LYZ.NS ([1]; dose 0.08 uM)	Dose.FC.LYZ.NS ([1]; dose 0.40 uM)	Dose.FC.LYZ.NS ([1]; dose 2.00 uM)	Dose.FC.LYZ.NS ([1]; dose 10.00 uM)	Dose.FC.LYZ.S ([2]; dose 0.08 uM)	Dose.FC.LYZ.S ([2]; dose 0.40 uM)	Dose.FC.LYZ.S ([2]; dose 2.00 uM)	Dose.FC.LYZ.S ([2]; dose 10.00 uM)	Dose.FC.CTG ([3]; dose 0.08 uM)	Dose.FC.CTG ([3]; dose 0.40 uM)	Dose.FC.CTG ([3]; dose 2.00 uM)	Dose.FC.CTG ([3]; dose 10.00 uM)	other results
O=C(O)Cn1nnc(-c2cc(N3CCC(Oc4cc(F)ccc4Br)CC3)no2)n1 [MK-8245]	0.200	0.273	−0.315	−0.670																	Dose.FC.LYZ.NS [1, 4]: 0.023 log2 fold change; Dose.FC.LYZ.NS [1, 5]: 0.031 log2 fold change; Dose.FC.LYZ.NS [1, 6]: −0.036 log2 fold change; Dose.FC.LYZ.NS [1, 7]: −0.077 log2 fold change; Dose.FC.LYZ.S [2, 4]: 0.069 log2 fold change; Dose.FC.LYZ.S [2, 5]: 0.185 log2 fold change; Dose.FC.LYZ.S [2, 6]: −0.062 log2 fold change; Dose.FC.LYZ.S [2, 7]: −0.123 log2 fold change; Dose.FC.CTG [3, 4]: 0.156 log2 fold change; Dose.FC.CTG [3, 5]: −0.113 log2 fold change; Dose.FC.CTG [3, 6]: −0.021 log2 fold change; Dose.FC.CTG [3, 7]: −0.263 log2 fold change
N#Cc1ccc(C(c2ccc(C#N)cc2)n2cncn2)cc1 [Letrozole]					0.570	1.115	0.082	−0.068													Dose.FC.LYZ.NS (log2 fold change) ([1]; dose 0.08 uM): 0.065; Dose.FC.LYZ.NS (log2 fold change) ([1]; dose 0.40 uM): 0.128; Dose.FC.LYZ.NS (log2 fold change) ([1]; dose 2.00 uM): 0.009; Dose.FC.LYZ.NS (log2 fold change) ([1]; dose 10.00 uM): −0.008; Dose.FC.LYZ.S (log2 fold change) ([2]; dose 0.08 uM): 0.040; Dose.FC.LYZ.S (log2 fold change) ([2]; dose 0.40 uM): 0.150; Dose.FC.LYZ.S (log2 fold change) ([2]; dose 2.00 uM): 0.006; Dose.FC.LYZ.S (log2 fold change) ([2]; dose 10.00 uM): 0.006; Dose.FC.CTG (log2 fold change) ([3]; dose 0.08 uM): −0.013; Dose.FC.CTG (log2 fold change) ([3]; dose 0.40 uM): 0.101; Dose.FC.CTG (log2 fold change) ([3]; dose 2.00 uM): 0.099; Dose.FC.CTG (log2 fold change) ([3]; dose 10.00 uM): 0.171
O=C1NC(=O)/C(=C/c2ccc(-c3ccc(F)cc3O)o2)S1 [AS-252424]					0.609	−0.368	−0.695	−0.671	0.070 log2 fold change	−0.042 log2 fold change	−0.080 log2 fold change	−0.077 log2 fold change	0.072 log2 fold change	−0.008 log2 fold change	−0.074 log2 fold change	−0.022 log2 fold change	0.139 log2 fold change	−0.074 log2 fold change	−0.359 log2 fold change	−0.204 log2 fold change	Z.CTG (standard z score) ([3]; dose 0.08 uM): 0.333; Z.CTG (standard z score) ([3]; dose 0.40 uM): −0.176; Z.CTG (standard z score) ([3]; dose 2.00 uM): −0.858; Z.CTG (standard z score) ([3]; dose 10.00 uM): −0.487
CCOC(=O)[C@H]1O[C@@H]1C(=O)N[C@@H](CC(C)C)C(=O)NCCC(C)C [Aloxistatin]					0.171	−0.250	−0.324	−1.236	0.020 log2 fold change	−0.029 log2 fold change	−0.037 log2 fold change	−0.142 log2 fold change	0.025 log2 fold change	−0.016 log2 fold change	−0.091 log2 fold change	−0.181 log2 fold change	−0.006 log2 fold change	−0.006 log2 fold change	−0.129 log2 fold change	−0.214 log2 fold change	
N#CSc1cc(SC#N)c(N)nc1N [PR-619]	0.872	0.448	0.495	−1.687																	Dose.FC.LYZ.NS [1, 8]: 0.100 log2 fold change; Dose.FC.LYZ.NS [1, 9]: 0.051 log2 fold change; Dose.FC.LYZ.NS [1, 10]: 0.057 log2 fold change; Dose.FC.LYZ.NS [1, 11]: −0.194 log2 fold change; Dose.FC.LYZ.S [2, 8]: 0.122 log2 fold change; Dose.FC.LYZ.S [2, 9]: 0.047 log2 fold change; Dose.FC.LYZ.S [2, 10]: 0.081 log2 fold change; Dose.FC.LYZ.S [2, 11]: −0.193 log2 fold change; Dose.FC.CTG [3, 8]: 0.054 log2 fold change; Z.CTG ([3]; dose 0.08 uM): 0.130; Dose.FC.CTG [3, 9]: 0.111 log2 fold change; Z.CTG ([3]; dose 0.40 uM): 0.266; Dose.FC.CTG [3, 10]: 0.022 log2 fold change; Z.CTG ([3]; dose 2.00 uM): 0.053; Dose.FC.CTG [3, 11]: −0.320 log2 fold change; Z.CTG ([3]; dose 10.00 uM): −0.764
